Experimental data published in patent US20250122192A1, “5-PYRIMIDINECARBOXAMIDE DERIVATIVES AND METHODS OF USING THE SAME” (Rgenta Therapeutics, Inc., priority 2021, published 2025).
Counter-ions that a name gives are not always drawn.

Tested on: PMS1
Test: Mini-gene reporter assay-PMS1
Assay type: cell-based
Conditions: Homo sapiens; for IC50: HEK293, PMS1 mini-gene firefly luciferase reporter transiently transfected into HEK293 cells, read-out: PMS1 IC50; for activation at 5 µM: PMS1 mini-gene firefly luciferase reporter in HEK293 cells, read-out: PMS1% Effect at 5 μM
In short: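 Compound dilution series in duplicate added to transiently transfected HEK293 reporter cells, then incubated; EC50 from Levenberg-Marquardt fit of luminescence. The reporter joins the alternatively skipped exon, its neighbouring introns and exons to firefly luciferase, so induced inclusion gives more signal.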

Row | SMILES | IC50 [nM] | activation at 5 µM [%]
1 | CCOc1nc(N2CCNCCC2C)ncc1C(=O)Nc1cn2cc(C)nc2c(C)n1 (stereo not shown) [Compound 40] | 1000 to 3000 | –
2 | CCOc1nc(N2CCNCC(O)C2)ncc1C(=O)Nc1cc(F)c2nc(C)cn2c1 (stereo not shown) [Compound 171] | 1000 to 3000 | –
3 | CCOc1nc(N2CC[C@@H]3NCC(=O)N[C@@H]3C2)ncc1C(=O)Nc1cc(F)c2nc(C)cn2c1 (racemic) [Compound 170] | – | < 50
4 | CCOc1nc(N2CCC(NC)C2)ncc1C(=O)Nc1cnc2nn(C)cc2c1 (stereo not shown) [Compound 276, 4-ethoxy-N-(2-methyl-2H-pyrazolo[3,4-b]pyridin-5-yl)-2-(3-(methylamino)pyrrolidin-1-yl)pyrimidine-5-carboxamide formate] | > 3000 | –
5 | CCOc1nc(N2CCCC(OC3CNC3)C2)ncc1C(=O)Nc1cc(F)c2nc(C)cn2c1 (stereo not shown) [Compound 153] | – | 50 to 75
6 | CCOc1nc(N2CC[C@H](NC)C2)ncc1C(=O)Nc1ccc2nc(C)cn2n1 [Compound 318] | > 3000 | –
7 | CCOc1nc(NC2CCNCC2)ncc1C(=O)Nc1cn2cc(C)nc2c(C)n1 [Compound 251, N-(2,8-dimethylimidazo[1,2-a]pyrazin-6-yl)-4-ethoxy-2-(piperidin-4-ylamino) pyrimidine-5-carboxamide formate] | 1000 to 3000 | –
8 | CCOc1nc(N2CCNC3CCCCC32)ncc1C(=O)Nc1cn2cc(C)nc2c(C)n1 (stereo not shown) [Compound 23] | > 3000 | –

Further lines, with some results ahead:

Row | IC50 [nM] | SMILES | activation at 5 µM [%]
9 | < 500 | CCOc1nc(N2CCC(NC)C2)ncc1C(=O)Nc1cc(OC)c2nc(C)cn2c1 (stereo not shown) [Compound 283, 4-ethoxy-N-(8-methoxy-2-methylimidazo[1,2-a]pyridin-6-yl)-2-(3-(methylamino)pyrrolidin-1-yl)pyrimidine-5-carboxamide formate] | –
10 | < 500 | CCOc1nc(N2CCC3(CCNCC3)C2)ncc1C(=O)Nc1cn2cc(C)nc2c(C)n1 [Compound 88] | –
11 | < 500 | CCOc1nc(N2CCC3(CC2)CNC3)ncc1C(=O)Nc1cc(F)c2nc(C)cn2c1 [Compound 235] | –
12 | < 500 | CCOc1nc(N2CC3(CCNC3)C2)ncc1C(=O)Nc1cn2cc(C)nc2c(C)n1 [Compound 51] | –
13 | < 500 | CCOc1nc(N2CC[C@H](NC)C2)ncc1C(=O)Nc1cc(F)c2nn(C)cc2c1 [Compound 277, (S)-4-ethoxy-N-(7-fluoro-2-methyl-2H-indazol-5-yl)-2-(3-(methylamino)pyrrolidin-1-yl)pyrimidine-5-carboxamide 4-methylbenzenesulfinate] | –
14 | < 500 | CCOc1nc(N(CC)C2CCCNCC2)ncc1C(=O)Nc1cc(F)c2nc(C)cn2c1 (stereo not shown) [Compound 168] | –
15 | < 500 | CCOc1nc(N2CC3(CC(NC)CO3)C2)ncc1C(=O)Nc1cc(F)c2nc(C)cn2c1 (stereo not shown) [Compound 246] | –
16 | < 500 | CCOc1nc(N2CCC(CNC(C)C)CC2)ncc1C(=O)Nc1cc(F)c2nc(C)cn2c1 [Compound 119] | –
